Data published in ChEMBL document CHEMBL1138603, “New Labdane diterpenes as intestinal alpha-glucosidase inhibitor from antihyperglycemic extract of Hedychium spicatum (Ham. Ex Smith) rhizomes” (Bioorg Med Chem Lett, 2009).
Activity calls are given as the source filed them. No cut-off for these calls is given here.

Tests used:
[1] = species on record: Rattus norvegicus; experiment: Inhibition of rat intestinal alpha-glucosidase activity at 100 ugmL
[2] = Inhibition of rat intestinal alpha-glucosidase activity

| inhibition [1] | IC50 [2] | Compound |
| --- | --- | --- |
| 25.7% |  | CC(=O)OC1=C(C)[C@H](/C=C/c2ccoc2)[C@@]2(C)CCCC(C)(C)[C@@H]2C1=O |
| 35.1% |  | CC1=CC(=O)[C@H]2C(C)(C)CCC[C@]2(C)[C@H]1/C=C/C1=CC(=O)OC1 |
| 55.6% |  | CC1=CC(=O)[C@H]2C(C)(C)CCC[C@]2(C)[C@H]1/C=C/c1ccoc1 |
| 15.1% |  | CC1(C)CCC[C@]2(C)[C@@H](/C=C/c3ccoc3)C(CO)=CC(=O)[C@@H]12 |
| 13.5% |  | CC1=C(O)C(=O)[C@H]2C(C)(C)CCC[C@]2(C)[C@H]1/C=C/c1ccoc1 |
| inactive |  | C=C1CC[C@H]2C(C)(C)CCC[C@]2(C)[C@H]1C |
|  | 23.8 µM | C[C@H]1O[C@H](O[C@H]2[C@H](O)[C@@H](O)[C@@H](O[C@H]3[C@H](O)[C@@H](O)C(O)O[C@@H]3CO)O[C@@H]2CO)[C@H](O)[C@@H](O)[C@@H]1N[C@H]1C=C(CO)[C@@H](O)[C@H](O)[C@H]1O (stereo partly specified) [ACARBOSE] |
| 11.3% |  | C=C1[C@@H](O)CC2C(C)(C)CCC[C@]2(C)[C@H]1C/C=C1\CCOC1=O (stereo partly specified) |
| 89.5% | 34.1 µM | CC1=CC(=O)[C@H]2C(C)(C)CCC[C@]2(C)[C@H]1/C=C/C1=CC(=O)O[C@H]1O [SPICATANOL] |
| 54.1% |  | CO[C@@H]1OC(=O)C=C1/C=C/[C@H]1C(C)=CC(=O)[C@H]2C(C)(C)CCC[C@]12C |
